Patent US4025644A, “Tyrosine derivatives and use” (Daiichi Seiyaku Co., Ltd., priority 1974, dated 1977)
Peptide text beside a SMILES is read from it. * marks the point of attachment. Bz = O=C(c1ccccc1)*

Legend:
[1] = tested on: acetic acid ulcers in rats; assay: Anti-ulcerous effect on acetic acid-induced experimental gastric ulcers in rats (oral for 13 days from the day after ulceration), Table I; format: in vivo, Donryu-strain male rats; conditions: relative to glutamine
Excerpt: The anti-ulcerous effects of the object compounds of this invention have been confirmed in tests on ulcers in rats. The ulcers were produced according to the method of K. Takagi, S. Okabe and R. Saziki, by the effect of acetic acid on the digestive organs (Japanese Journal of Pharmacology vol. 19 pages 418-426 (1969), Yakkyoku vol. 25 pages 1453-1459 (1974) and Experientia vol. 27 pages 146-148 (1971). It is known that this experimental ulcer resembles human peptic ulcers with respect to the overall and histological findings and as to the recovery process. The experimental details confirming the anti-ulcerous effect are as follows.
Donryu-strain male rats having a body weight -- 230-270g (ten rats to a group) were not fed for 24 hours and then were anesthesized with ether. A laparotomy was performed. The stomach was exposed and 0.05 ml of 10% acetic acid was injected into the subserosal layer in the glandular part of the anterior wall to produce the experimental ulcers. The abdomen was then closed. Beginning on the day after the ulceration, the compounds of this invention were orally administered to the rats for 13 days. The rats were fed normally and sacrificed on the 15th day after the ulcer formation. The size of the ulcer (length and width) in the glandular part of the stomach was measured and the product of the length and width was used as the ulcer index (UI). The curative ratio (%) was calculated from the ulcer index of the rats which were medicated as compared with the index of the control group. [formula]
For the purpose of comparing the effects with those of known drugs, the therapeutic effects of the compounds of this invention, tyrosine itself and gefarnate relative to those of glutamine were calculated and are listed in Table I. Of these compounds, gefarnate (geranyl farnesylacetate,U.S. Pat. No. 3,154,570 (1964) and glutamine are known anti-ulcerous drugs.

[2] = Acute toxicity, oral, mice; conditions: in vivo, mouse p.o.
[3] = tested on: chronic acetic acid ulcers in rats; assay: Anti-ulcerous effect on chronic acetic acid ulcers in rats (oral, 41st to 54th day after ulceration), Table II; format: in vivo; conditions: 14 days, relative to glutamine
Procedure: Donryu-strain male rats having a body weight -- 230-270g (ten rats to a group) were not fed for 24 hours and then were anesthesized with ether. A laparotomy was performed. The stomach was exposed and 0.05 ml of 10% acetic acid was injected into the subserosal layer in the glandular part of the anterior wall to produce the experimental ulcers. The abdomen was then closed. […] […] The size of the ulcer (length and width) in the glandular part of the stomach was measured and the product of the length and width was used as the ulcer index (UI). The curative ratio (%) was calculated from the ulcer index of the rats which were medicated as compared with the index of the control group. [formula] Acetic acid ulcers in rats are known to undergo partial healing and re-ulceration so that these ulcers resemble human chronic ulcers, both histologically and functionally. In order to examine the anti-ulcerous effects on chronic ulcers, the compounds of this invention were orally administered to rats for 14 days, from the 41st day to the 54th day after ulceration with acetic acid. On the 55th day, the rats were sacrificed and the size of the ulcer was measured. The procedure used in ulceration and in the determination of effects are the same as those described hereinbefore.

| SMILES | Relative therapeutic effect ([1]; 200 mg/kg/day) | LD50 [2] [mg/kg] | further results |
| --- | --- | --- | --- |
| COc1ccc(C(=O)N[C@H](CO)Cc2ccc(O)cc2)cc1 | 1.76 | > 4000 |  |
| COc1ccccc1C(=O)N[C@H](CO)Cc1ccc(O)cc1 | 1.29 |  |  |
| COc1cc(C(=O)N[C@H](CO)Cc2ccc(O)cc2)cc(OC)c1OC | 1.43 | > 4000 |  |
| Nc1ccc(C(=O)N[C@H](CO)Cc2ccc(O)cc2)cc1 | 1.24 |  |  |
| Cc1ccc(COC(=O)N[C@H](CO)Cc2ccc(O)cc2)cc1 | 1.81 | > 4000 |  |
| O=C(N[C@H](CO)Cc1ccc(O)cc1)OCc1ccc(F)cc1 | 1.14 |  |  |
| O=C(N[C@H](CO)Cc1ccc(O)cc1)OCc1ccc(Cl)cc1 | 0.81 |  |  |
| O=C(N[C@H](CO)Cc1ccc(O)cc1)OCC1CCCCC1 | 1.60 |  |  |
| COc1ccc(C(=O)N[C@@H](Cc2ccccc2)C(=O)N[C@@H](Cc2ccc(O)cc2)C(=O)O)cc1 [Compound (II) R3 =CH3 O, N-(4-methoxybenzoyl)-phenylalanyltyrosine] |  | > 4000 | Relative therapeutic effect ([3]; 50 mg/kg/day): 7.85 |
| O=C(N[C@@H](Cc1ccccc1)C(=O)N[C@@H](Cc1ccc(O)cc1)C(=O)O)c1ccccc1 [Compound (II) R3 =H, N-benzoylphenylalanyltyrosine] (Bz-Phe-Tyr-OH) | 1.19 | > 4000 |  |
| CC(C)=CCCC(C)=CCCC(C)=CCCC(=O)OC/C=C(\C)CCC=C(C)C [Gefarnate, geranyl farnesylacetate, reference compound] | 1.06 |  | Relative therapeutic effect ([3]; 200 mg/kg/day): 0.77 |
| NC(=O)CC[C@H](N)C(=O)O [Glutamine, glutamine, reference compound] | 0.30 |  | Relative therapeutic effect ([1]; 1000 mg/kg/day): 1.00; Relative therapeutic effect ([3]; 1000 mg/kg/day): 1.00 |
| COC(Cc1ccccc1)C(=O)N[C@H](CO)Cc1ccc(O)cc1 (stereo partly drawn) [N-(α -methoxy-β-phenylpropionyl)-tyrosinol] |  | > 4000 |  |
| COc1ccc(C[C@@H](CO)NC(=O)OCc2ccc(OC)c(OC)c2)cc1 [O-methyl-N-(3,4-dimethoxybenzyloxycarbonyl)-tyrosinol] | 0.98 | > 4000 |  |
| COc1ccc(C[C@@H](CO)NC(=O)OCc2ccccc2)cc1 [O-methyl-N-benzyloxycarbonyltyrosinol] | 1.03 | > 4000 |  |
| N[C@@H](Cc1ccc(O)cc1)C(=O)O [Tyrosine, tyrosine] | 0.37 |  |  |
| COc1ccc(COC(=O)N[C@H](CO)Cc2ccc(O)cc2)cc1 [drawing 11] | 1.75 | > 4000 |  |
| COc1ccc(COC(=O)N[C@H](CO)Cc2ccc(O)cc2)cc1 [drawing 17] |  |  | Relative therapeutic effect ([3]; 50 mg/kg/day): 7.72 |
